Assay results as given in US5444049A, “Peptide compounds derived from boronic acid” (Adir et Compagnie, priority 1993, dated 1995).

Tests used:
[1] = target: T1, purified human activated factor X (Homo sapiens, UniProt P00742); assay: Inhibition of activated factor X; type: biochemical; conditions: substrate S 2765
T1 construct: purchased Stago
Method: (§1) To evaluate in vitro the selectivity of these products with respect to different serine proteases of fibrinolysis and of coagulation, the same protocol was applied to purified human plasmin (2 nM, Stago), to purified human activated protein C (2 nM, Stago), to purified human activated factor X (2 nM, Stago), to tissue plasminogen activator (2 nM, Calbiochem), to purified human urokinase (2 nM, Sigma) and to purified human plasma kallikrein (2 nM, Calbiochem), using different peptidyl para-nitroanilides as substrate: <Glu-Phe-Lys-pNA (0.50 mM, S 2403, Kabi) for plasmin, N-Cbo-Arg-Gly-Arg-pNA (0.38 mM, S 2765, Kabi) for factor Xa, <Glu-Pro-Arg-pNa (0.52 mM, S 2366, Kabi) for activated protein C, H-D-Pro-Phe-Arg-pNa (0.45 mM, S 2302, Kabi) for kallikrein, H-D-Ile-Pro-Arg-pNA (0.48 mM, S 2288, Kabi), <Glu-Gly-Arg-pNA (0.56 mM, S 2444, Kabi).
(§2) Inhibitors, enzymes and substrates are diluted in the same buffer ([…] buffer, pH 7.4, containing 0.12M sodium chloride and 0.05% of bovine serum albumin), and then distributed in a polystyrene microplate in a volume of […].
(§3) The fibrin formed by thrombin or by the para-nitroaniline liberated by the action of the serine protease is measured spectrophotometrically at 405 nm after 15 to 30 minutes of reaction at 20° C.

[2] = target: T2, purified human plasma kallikrein (Homo sapiens, UniProt P03952); assay: Inhibition of plasma kallikrein; type: biochemical; conditions: substrate S 2302; read-out: IC50 Kalli
T2 construct: to purified human plasma kallikrein (2 nM, Calbiochem); purchased Calbiochem
T2 sequence (P03952 391-638 limits assumed): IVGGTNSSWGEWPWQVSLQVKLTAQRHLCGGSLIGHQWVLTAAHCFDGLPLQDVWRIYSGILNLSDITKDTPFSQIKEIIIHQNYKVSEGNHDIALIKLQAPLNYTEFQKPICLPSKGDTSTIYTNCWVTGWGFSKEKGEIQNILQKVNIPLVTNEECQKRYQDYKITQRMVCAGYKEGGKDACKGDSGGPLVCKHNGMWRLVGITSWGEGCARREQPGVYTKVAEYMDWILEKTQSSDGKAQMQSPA
T2 sequence (P03952 20-390 limits assumed): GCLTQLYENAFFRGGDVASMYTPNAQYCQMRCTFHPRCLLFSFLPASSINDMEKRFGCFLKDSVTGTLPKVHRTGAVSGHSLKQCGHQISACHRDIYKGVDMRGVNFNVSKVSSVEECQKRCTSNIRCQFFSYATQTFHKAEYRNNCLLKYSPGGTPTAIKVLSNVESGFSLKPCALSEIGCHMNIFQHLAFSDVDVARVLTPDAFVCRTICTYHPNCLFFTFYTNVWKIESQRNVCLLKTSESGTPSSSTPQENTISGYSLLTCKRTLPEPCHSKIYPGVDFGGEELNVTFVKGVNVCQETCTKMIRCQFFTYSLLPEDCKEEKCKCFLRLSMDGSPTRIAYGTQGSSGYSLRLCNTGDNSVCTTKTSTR
Method: as §1, §2, §3

OFA rats [3] = assay: Anticoagulant activity ex vivo, intravenous administration, activated cephalin time; type: in vivo, rat; conditions: 0.5 mg/kg i.v., 15.5 min
[4] = target: T3, purified human activated protein C (Homo sapiens, UniProt P04070); assay: Inhibition of activated protein C; type: biochemical; conditions: substrate S 2366
T3 construct: purchased Stago
T3 sequence (P04070 212-461 limits assumed): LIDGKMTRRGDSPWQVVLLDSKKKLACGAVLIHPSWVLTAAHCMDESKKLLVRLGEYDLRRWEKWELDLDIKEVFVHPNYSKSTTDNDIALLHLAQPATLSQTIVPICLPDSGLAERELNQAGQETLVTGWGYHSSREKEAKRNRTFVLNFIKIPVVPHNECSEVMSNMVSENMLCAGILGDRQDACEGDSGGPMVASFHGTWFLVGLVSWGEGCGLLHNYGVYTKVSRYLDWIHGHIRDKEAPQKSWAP
T3 sequence (P04070 43-197 limits assumed): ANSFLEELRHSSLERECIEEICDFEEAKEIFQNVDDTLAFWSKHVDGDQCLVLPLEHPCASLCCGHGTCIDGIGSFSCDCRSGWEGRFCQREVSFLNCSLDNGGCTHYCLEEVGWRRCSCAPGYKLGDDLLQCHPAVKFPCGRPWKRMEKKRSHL
Method: as §1, §2, §3

[5] = test system: thrombin time of rat platelet-poor plasma; assay: Anticoagulant activity: thrombin time in rat plasma; type: biochemical; conditions: rat plasma, 2 minutes at 37° C.
Method: (§4) In the presence of a standard quantity of thrombin, a normal plasma coagulates in a defined and constant time, termed the thrombin time (TT). Any prolongation of this time reflects an abnormality of fibrin formation (coagulation).
(§5) Sprague-Dawley rats are anesthetized with pentobarbital sodium (60 mg/kg i.p.), the carotid artery is catheterized and blood samples are taken into trisodium citrate solution (0.109M). A platelet-poor plasma is obtained by centrifugation of the blood samples (3000 g, 15 minutes). Samples of venous blood are also taken from humans at the bend of the arm. Anticoagulation of the samples and preparation of platelet-poor plasma are identical to those carried out with rat blood.
(§6) The thrombin time is obtained with Prest thrombin reagent and determined automatically using a coagulometer.
(§7) The antagonist or the solvent (10 μl) is added to the plasma (90 μl) and then incubated for 2 minutes at 37° C. 100 µl of thrombin are added as the chronometer is started.
(§8) Under these conditions, the TT values obtained in the control plasma are of the order of 30 seconds in rats and 20 seconds in humans. The activity of an antagonist is evaluated by its capacity to prolong this thrombin time relative to the control.
(§9) Under these conditions, the compounds of the invention permit a prolongation of the thrombin time of 50-fold and more. The effect of the inhibitors is measured, and the concentration which multiplies the thrombin time by 2 (CTT2) is determined.

purified human plasmin = target: T4, purified human plasmin (Homo sapiens, UniProt P00747); assay: Inhibition of plasmin; type: biochemical; conditions: substrate S 2403
T4 construct: purified human plasmin (2 nM, Stago); purchased Stago
T4 sequence (P00747 581-810 limits assumed): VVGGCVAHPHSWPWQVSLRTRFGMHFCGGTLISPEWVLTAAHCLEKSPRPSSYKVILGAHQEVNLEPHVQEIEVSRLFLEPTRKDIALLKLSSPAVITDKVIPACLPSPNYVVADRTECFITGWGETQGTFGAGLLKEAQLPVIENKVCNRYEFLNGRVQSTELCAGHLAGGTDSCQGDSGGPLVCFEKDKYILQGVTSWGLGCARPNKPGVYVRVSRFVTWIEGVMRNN
T4 sequence (P00747 97-580 limits assumed): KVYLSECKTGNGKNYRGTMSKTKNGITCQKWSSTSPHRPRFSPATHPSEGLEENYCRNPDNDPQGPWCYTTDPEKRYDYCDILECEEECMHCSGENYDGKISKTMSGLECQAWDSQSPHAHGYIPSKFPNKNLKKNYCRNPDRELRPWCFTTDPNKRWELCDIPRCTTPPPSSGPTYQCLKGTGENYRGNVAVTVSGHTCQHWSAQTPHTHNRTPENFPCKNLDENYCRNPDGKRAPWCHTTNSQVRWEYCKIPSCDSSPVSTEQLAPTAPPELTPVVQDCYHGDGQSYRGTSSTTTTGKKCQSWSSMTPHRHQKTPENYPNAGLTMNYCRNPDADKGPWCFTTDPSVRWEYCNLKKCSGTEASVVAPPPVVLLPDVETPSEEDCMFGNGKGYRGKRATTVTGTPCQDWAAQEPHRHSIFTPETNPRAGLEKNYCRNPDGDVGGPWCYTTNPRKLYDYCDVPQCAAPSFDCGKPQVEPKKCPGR
Method: as §1, §2, §3

purified human urokinase = target: T5, purified human urokinase (Homo sapiens, UniProt P00749); assay: Inhibition of urokinase; type: biochemical; conditions: peptidyl para-nitroanilide substrate
T5 construct: purchased Sigma
Method: as §1, §2, §3

dogs [6] = assay: Anticoagulant activity p.o. in dogs, thrombin time; type: in vivo, dog; conditions: 2.5 mg/kg orally
Method: (§10) The products were administered orally to dogs.2 hours and 4 hours after the treatment, and blood was withdrawn via the intravenous route. The plasma is prepared, platelets counted and the thrombin time test is carried out.

OFA rats [7] = assay: Anticoagulant activity ex vivo, intravenous administration, activated cephalin time; type: in vivo, rat; conditions: 0.5 mg/kg i.v.
Method: OFA rats, fasted or otherwise, are anesthetized with pentobarbital (60 mg/kg i.p.). The carotid artery and the jugular vein are exposed and catheterized. The catheters are flushed with citrated (1/40) physiological solution. After installation of the catheters, a sample of 1.5 cm^3 of arterial blood is withdrawn into 0.109M citrate (1/9).
30 minutes later, the test product is administered i.v. in a volume of 1 ml.
Arterial blood samples (1.5 ml) are then withdrawn at 1 minute 30 sec and 5, 15, 30 and 60 minutes.
As each sample is withdrawn, 1.5 ml of citrated physiological solution are reinjected into the animal via the carotid.
The blood tubes are centrifuged for 15 minutes at 3000 g (preparation of plasma). 100 μl of plasma are incubated with 100 gl of activated cephalin. The time of onset of the coagulation phenomenon is measured after adding 100 μl of calcium.
The compounds of the invention, tested at a dose of 0.5 mg/kg, increase the activated cephalin time (ACT) in a dose-dependent manner. […] The increase in ACT noted with the compounds of the invention is still significant 60 minutes after their administration. The results are reproduced in the following table, and show the factors by which the coagulation time is increased.

OFA rats [8] = assay: Anticoagulant activity ex vivo, oral administration (conscious rats), thrombin time; type: in vivo, rat; conditions: 10 mg/kg orally
Method: Fasted OFA rats are anesthetized with ether. The cordal artery is exposed and catheterized. The catheter is flushed with citrated (1/40) physiological solution. After installation of the catheter, the animal is placed in a restraining cage and 1.5 cm^3 of arterial blood are withdrawn into 0.109M citrate (1/9).
1 hour after the animal has awoken, the test products are administered orally at a single dose of 10 mg/kg.
Arterial blood samples (1.5 ml) are then withdrawn at 30 minutes, 60 minutes and 2 hours.
As each sample is withdrawn, 1.5 ml of physio-logical solution are reinjected into the animals.
The blood tubes are centrifuged for 15 minutes at 3000 g for preparation of the plasma. The time of onset of the coagulation phenomenon is measured after adding Prest thrombin.
The results are reproduced in the following table, and show the factors by which the thrombin time is increased.

dogs [9] = assay: Thrombopenia p.o. in dogs, platelet count; type: in vivo, dog; conditions: 2.5 mg/kg orally
Method: as §10

[10] = test system: thrombin time of human platelet-poor plasma; assay: Anticoagulant activity: thrombin time in human plasma; type: biochemical; conditions: human plasma, 2 minutes at 37° C.
Method: as §4, §5, §6, §7, §8, §9

[11] = target: T6, tissue plasminogen activator (Homo sapiens, UniProt P00750); assay: Inhibition of tissue plasminogen activator; type: biochemical; conditions: peptidyl para-nitroanilide substrate
T6 construct: purchased Calbiochem
T6 sequence (P00750 36-562): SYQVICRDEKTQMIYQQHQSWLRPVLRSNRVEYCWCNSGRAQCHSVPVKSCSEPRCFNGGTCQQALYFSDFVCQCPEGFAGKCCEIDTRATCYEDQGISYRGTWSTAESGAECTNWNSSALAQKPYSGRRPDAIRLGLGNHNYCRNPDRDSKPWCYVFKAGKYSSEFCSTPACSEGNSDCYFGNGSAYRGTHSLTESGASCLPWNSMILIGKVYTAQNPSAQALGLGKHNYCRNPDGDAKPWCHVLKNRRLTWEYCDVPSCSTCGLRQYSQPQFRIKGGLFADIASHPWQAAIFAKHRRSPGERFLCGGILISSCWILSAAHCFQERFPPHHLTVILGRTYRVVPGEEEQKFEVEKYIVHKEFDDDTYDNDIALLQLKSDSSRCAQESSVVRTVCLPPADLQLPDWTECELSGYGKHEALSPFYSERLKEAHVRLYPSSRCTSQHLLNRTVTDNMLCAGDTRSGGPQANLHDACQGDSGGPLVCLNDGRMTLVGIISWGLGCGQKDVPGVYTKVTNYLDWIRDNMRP
Method: as §1, §2, §3

T1 sequence (P00742 235-488 limits assumed): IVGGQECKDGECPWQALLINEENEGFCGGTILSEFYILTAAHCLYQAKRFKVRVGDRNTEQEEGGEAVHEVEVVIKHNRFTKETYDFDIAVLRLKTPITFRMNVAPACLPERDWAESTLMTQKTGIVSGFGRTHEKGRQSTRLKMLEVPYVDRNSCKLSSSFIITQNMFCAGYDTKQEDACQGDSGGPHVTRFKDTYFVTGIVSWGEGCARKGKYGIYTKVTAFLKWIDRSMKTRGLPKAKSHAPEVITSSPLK
T1 sequence (P00742 41-179 limits assumed): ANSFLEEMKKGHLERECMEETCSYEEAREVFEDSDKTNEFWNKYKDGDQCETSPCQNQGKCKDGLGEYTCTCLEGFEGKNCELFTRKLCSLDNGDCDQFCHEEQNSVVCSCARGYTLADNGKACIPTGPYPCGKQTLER

SMILES: CC(=O)N[C@H](Cc1ccccc1)C(=O)N1CCC[C@H]1C(=O)N[C@@H](CCCN=C(N)N)B(O)O [DUP 714, Ac-(D)Phe-Pro-Arg-boronic acid, reference compound]
- IC50 [1]: 41 nM
- IC50 [2]: 8 nM
- factor by which the coagulation time (ACT) is increased (OFA rats [3]): 7.6
- IC50 [4]: 17 nM
- Rat CTT2 (concentration which multiplies the thrombin time by 2) [5]: 0.32 µM
- IC50 (purified human plasmin): 28 nM
- IC50 (purified human urokinase): 24 nM
- Increase factor TT (dogs [6]; 2 hr): 7
- Increase factor TT (dogs [6]; 4 hr): 2
- factor by which the coagulation time (ACT) is increased (OFA rats [7]; 5 min): 3.4
- factor by which the coagulation time (ACT) is increased (OFA rats [7]; 15 min): 2.0
- factor by which the coagulation time (ACT) is increased (OFA rats [7]; 30 min): 1.7
- factor by which the coagulation time (ACT) is increased (OFA rats [7]; 60 min): 1.4
- factor by which the thrombin time is increased (OFA rats [8]; 0.5 hours): 4.0
- factor by which the thrombin time is increased (OFA rats [8]; 1 hour): 3.7
- factor by which the thrombin time is increased (OFA rats [8]; 2 hours): 3.9
- thrombopenia (dogs [9]): marked thrombopenia
- Change in platelet count (% of control) (dogs [9]; 2 hr): -32%
- Change in platelet count (% of control) (dogs [9]; 4 hr): -16%
- Man CTT2 (concentration which multiplies the thrombin time by 2) [10]: 0.18 µM
- IC50 [11]: 8 nM
